Reference: the Deep4Chem optical property database

Assay: solvent given as SMILES

O=C1Nc2ccccc2/C1=C/C(=O)c1ccc(O)cc1
emission maximum (in C1CCCCC1): 384 nm | emission maximum (in C1COCCO1): 399 nm | emission maximum (in CC#N): 401 nm | emission maximum (in CC(C)(C)O): 406 nm | emission maximum (in CC(C)O): 407 nm | emission maximum (in CCCCCC): 382 nm | emission maximum (in CCCCO): 407 nm | emission maximum (in CCOC(C)=O): 398 nm | emission maximum (in CN(C)C=O): 401 nm | emission maximum (in CO): 408 nm | emission maximum (in ClCCl): 400 nm | emission maximum (in O): 424 nm

COc1cc(Br)cc2cc(-c3cc4cc(Br)cc(OC)c4oc3=O)oc12
emission maximum (in CC#N): 381 nm | emission maximum (in CCOC(C)=O): 434 nm | emission maximum (in CS(C)=O): 387 nm | emission maximum (in Cc1ccccc1): 430 nm | emission maximum (in O): 497 nm

COc1ccc([Si](C)(C)C)c2ccccc12
emission maximum (in C1CCCCC1): 327 nm

c1ccc(-c2c3ccccc3c(-c3ccc(-c4cccnc4)cc3)c3ccccc23)cc1
emission maximum (in ClCCl): 417 nm

COc1ccc(-c2cc3c(ccc4sc5ccc6sccc6c5c43)s2)cc1
emission maximum (in ClCCl): 409 nm

COc1ccc2c(c1)-c1cc3c(cc1[Si]2(c1ccccc1)c1ccccc1)-c1ccccc1[Si]3(c1ccccc1)c1ccccc1
emission maximum (in ClCCl): 397 nm

CN(C)c1ccc(C2=Nc3scc[n+]3[B-](F)(F)O2)cc1
emission maximum (in C1CCOC1): 454 nm | emission maximum (in CC#N): 469 nm | emission maximum (in Cc1ccccc1): 439 nm | emission maximum (in ClCCl): 453 nm

CCCCCCCCC1(CCCCCCCC)c2cc(-c3ccccc3)ccc2-c2ccc(-c3ccccc3)cc21
emission maximum (in ClC(Cl)Cl): 361 nm

Cc1cccc(C)c1Nc1ccc(/C=C/c2cccnc2)cc1
emission maximum (in CC#N): 450 nm | emission maximum (in CCCCCC): 383 nm

c1ccc(N(c2ccccc2)c2ccc(-c3ccc4c(c3)C3(c5cc(-c6ccc(N(c7ccccc7)c7ccccc7)cc6)ccc5-4)c4ccccc4N(c4ccccc4)c4ccccc43)cc2)cc1
emission maximum (in ClCCl): 451 nm | emission maximum (in c1cc(-n2c3ccccc3c3ccccc32)cc(-n2c3ccccc3c3ccccc32)c1): 432 nm

CCCCN(CCCC)c1ccc(C#Cc2cc(C#Cc3ccc(N(CCCC)CCCC)cc3)c(C#Cc3c(F)c(F)c(F)c(F)c3F)cc2C#Cc2c(F)c(F)c(F)c(F)c2F)cc1
emission maximum (in ClCCl): 555 nm | emission maximum (in c1ccccc1): 512 nm

c1ccc2c(c1)ccc1ccccc12
emission maximum (in Cc1ccccc1): 350 nm

Oc1ccc2ccccc2c1
emission maximum (in C1CCCCC1): 350.75 nm | emission maximum (in O): 351 nm

Cc1ccc(/N=C2/C3=c4[nH]c5ccccc5c4=[N+](c4ccc(C)cc4)[B-](F)(F)N3c3ccccc32)cc1
emission maximum (in ClCCl): 756 nm

COC(=O)c1nc(-c2ccco2)oc1C
emission maximum (in C1CCCCC1): 302 nm | emission maximum (in CC#N): 318 nm | emission maximum (in CCO): 323 nm | emission maximum (in CCOC(C)=O): 304 nm

CCN(CC)c1ccc2cc(-c3ccc(C(F)(F)F)cc3)oc(=O)c2c1
emission maximum (in CC(C)=O): 454 nm | emission maximum (in CCCCCC): 418 nm | emission maximum (in CCCCO): 468 nm | emission maximum (in CCCO): 470 nm | emission maximum (in CCO): 471 nm | emission maximum (in CCOC(C)=O): 443 nm | emission maximum (in CN(C)C=O): 462 nm | emission maximum (in CO): 475 nm | emission maximum (in ClC(Cl)Cl): 450 nm

CCN(CC)c1ccc2c(c1)oc(=O)c1c(C)nc3c(c(-c4ccccc4)nn3-c3ccccc3)c12
emission maximum (in ClCCl): 461 nm

C(#Cc1c(C#Cc2ccccc2)c(C#Cc2ccccc2)c(C#Cc2ccccc2)c(C#Cc2ccccc2)c1C#Cc1ccccc1)c1ccccc1
emission maximum (in ClCCl): 452 nm

CCCCN1C(=S)c2cccc3cccc(c23)C1=S
emission maximum (in Cc1ccccc1): 506 nm

O=c1c2cc(Br)ccc2nc2n1[B-](F)(F)[n+]1ccccc1-2
emission maximum (in CC#N): 440 nm | emission maximum (in ClCCl): 448 nm

CC(C)(C)c1ccc(-c2nc3c4ccc(-c5cc6ccccc6c6ccccc56)cc4c4cc(-c5cc6ccccc6c6ccccc56)ccc4c3n2-c2ccc(C(C)(C)C)cc2)cc1
emission maximum (in C1CCOC1): 388 nm | emission maximum (in C1COCCO1): 386 nm | emission maximum (in CC#N): 405 nm | emission maximum (in CCCCCC): 382 nm | emission maximum (in CCCCOCCCC): 384 nm | emission maximum (in CCN(CC)CC): 384 nm | emission maximum (in CCOC(C)=O): 388 nm | emission maximum (in CCOCC): 384 nm | emission maximum (in CN(C)C=O): 404 nm | emission maximum (in Cc1ccccc1): 385 nm | emission maximum (in ClC=C(Cl)Cl): 388 nm | emission maximum (in ClCCl): 404 nm

N#Cc1ccc(-n2c(-c3ccc(-c4ccc(-c5nc6c7ccccc7c7ccccc7c6n5-c5ccc(C#N)c6ccccc56)cc4)cc3)nc3c4ccccc4c4ccccc4c32)c2ccccc12
emission maximum (in ClCCl): 430 nm

CC1=CC(c2ccc(N(C)C)cc2)=[N+]2C1=Nc1c(C)cc(-c3ccc(N(C)C)cc3)n1[B-]2(F)F
emission maximum (in C1CCOC1): 791 nm | emission maximum (in CS(C)=O): 822 nm | emission maximum (in Cc1ccccc1): 779 nm

COc1ccc(-c2nc(C(C)=O)c(C)o2)cc1
emission maximum (in CC#N): 347 nm | emission maximum (in CCO): 354 nm | emission maximum (in CCOC(C)=O): 347 nm | emission maximum (in CCOCC): 345 nm | emission maximum (in ClCCl): 351 nm
